Test results from patent publication US20230270721A1, “INHIBITION OF BAX-MEDIATED CELL DEATH BY ELTROMBOPAG” (Albert Einstein College of Medicine, priority 2020, published 2023).

What was measured:
[1] = tested on: platelets of C57BL/6J mice; assay: In vivo mouse platelet experiments; settings: ABT-263 25 mg/kg single dose, oral gavage, within 24 hr
Method: Wild type black mice strain C57BL/6J were treated with vehicle, ABT-263 (25 mg/kg, single dose), EO (100 mg/kg, then 3 hrs later 50 mg/kg), or a combination of ABT-263 and EO. EO was formulated in dH2O, and ABT-263 was formulated in 10% ethanol, 30% polyethylene glycol 400, and 60% Phosal 50 PG. Both ABT-263 and EO were administered by oral gavage. Blood samples were collected by submandibular bleed before treatment and 24 hours following treatment, and CBC was acquired. Percentage platelet protection was calculated as follows: % Platelet Protection = (100)(Px - mPABT)/(mPv - mPABT) where Px is the platelet count for a given mouse, mPv is the mean vehicle treated platelet count, and mPABT is the mean ABT-263 treated platelet count. Statistical analysis was performed using one-way ANOVA with select multiple comparisons as shown.
Finally, whether EO can rescue thrombocytopenia induced by the activity of navitoclax was evaluated in mice. The use of navitoclax is limited by on-target toxicity triggering BAK/BAX-mediated platelet apoptosis (Zhang, H. et al. Cell Death Differ 14, 943-951 (2007)). […] This EO effect is distinct from its capacity to stimulate platelet production by differentiation of the megakaryocyte precursors and progenitor cells, which requires 5 days to begin (Erickson-Miller, C. L. et al. Stem Cells 27, 424-430 (2009); Jenkins, J. M. et al. Blood 109, 4739-4741 (2007)).

BAX [2] = molecular target: T1, BAX (Homo sapiens, UniProt Q07812); assay: Competitive fluorescence polarization binding assay (FPA), BAX / FITC-BIM-SAHB; settings: BAX 150 nM, FITC-BIM-SAHB 25 nM; read-out: IC50, competition of FITC-BIM-SAHB by FPA
T1 construct: Human full-length (1-192) wild-type BAX (Q07812); made in house; host or cells: E. coli BL21 (DE3) CodonPlus (DE3)-RIPL
Method: Fluorescence polarization assays (FPA) were performed as previously described (Gavathiotis, E., et al. Nat Chem Biol 8, 639-645 (2012)). Direct binding isotherms of BIM-SAHB were measured by incubated FITC-BIM-SAHB (25 nM) with serial dilutions of full-length BAX alone or in the presence of 0.5 or 1 µM EO. Competition binding assays were performed by titrating ED into BAX (150 nM) and FITC-BIM-SAHB (25 nM). Measurements were taken at 10-minute intervals over 60 minutes on a TECAN F200 PRO microplate reader. Reported curves represent 10-minute time point. KD values and IC50 were determined using GraphPad Prism nonlinear fit four-parameter agonist or antagonist versus response with restraints for 100% and 0% bound calculated by the mP of saturated BAX + FITC-BIM-SAHB and FITC-BIM-SAHB alone.
To test this hypothesis, a competitive fluorescence polarization assay (FPA) (Gavathiotis, E., et al. Nat Chem Biol 8, 639-645 (2012)) based on the interaction between BAX and fluorescently-labeled stapled BIM-BH3 peptide (FITC-BIM-SAHB) was used (Gavathiotis, E., et al. Nature 455, 1076-1081 (2008)). […] The IC50 and KD are consistent with a competitive binding mechanism of EO displacing FITC-BIM-SAHB from the N-terminal trigger site of BAX.

BAX [3] = molecular target: T1, BAX; assay: Liposomal permeabilization (ANTS/DPX release) assay; type: biochemical; settings: 50 nM BAX and 5 nM tBID; compared with EO
Method: Lipids (Avanti Polar Lipids) at the following ratio, phosphatidylcholine 48%, phosphatidylinositol 10%, dioleoyl phosphatidylserine 10%, phosphatidylethanolamine, 28%, and tetraoleoyl cardiolipin 4%, were mixed in a total of 1 mg, dried and resuspended in 10 mM HEPES, pH 7, 200 mM KCI, and 5 mM MgCl2 with 12.5 mM 8-aminonaphthalene-1,3,6-trisulfonic acid (ANTS) dye and 45 mM p-xylene-bis-pyridinium bromide (DPX) quencher (Molecular Probes) using a water bath sonicator. Liposomes were formed by extrusion of the suspension using Avanti Mini-Extruder (Cat # 610000) with polycarbonate membranes of 0.1 µm pore size (Avanti Polar Lipids). ANTS/DPX encapsulated liposomes were purified from non-encapsulated ANTS/DPX by gel filtration of a 10 mL CL2B-Sepharose (GE Healthcare Life Sciences) gravity-flow column. BAX (50-250 nM) was combined with tBID, BIM, and EO at the indicated concentrations to a volume of 90 µL. Reactions were initiated by the addition of […] of the encapsulated ANTS/DPX liposome stock. ANTS/DPX release was quantified based on the increase in fluorescence intensity that occurs when the ANTS fluorophore is separated from the DPX quencher upon release from the liposomes into solution. Fluorescence (λex = 355 nm and λem = 520 nm) was measured at 1 minute intervals at room temperature (22-25° C.) indicated using a Tecan Infinite M1000 plate reader. In the case of heat activation, reactions were set up as described in the absence of tBID or BIM, and experiments were recorded at 42° C. The percentage release of ANTS/DPX at any given time point was calculated as percentage release=((F-F0)/(F100-F0))(100), where F0 and F100 are baseline and maximal fluorescence, respectively. Triton X-100 (1%) was used to determine the maximum amount of liposomal release per assay and was set to 100%.
Next, EO’s capacity to modulate BAX activity was evaluated using liposomal release assays. […] Instead, EO was able to inhibit both tBID- and BIM BH3-mediated BAX activation (FIGS. 1E, 1F, and 1G). Inhibition of tBID-mediated BAX activation by EO was inversely proportional to the concentration of the tBID activator, consistent with competitive inhibition of BH3-activator binding.

T1 sequence (Q07812 whole entry): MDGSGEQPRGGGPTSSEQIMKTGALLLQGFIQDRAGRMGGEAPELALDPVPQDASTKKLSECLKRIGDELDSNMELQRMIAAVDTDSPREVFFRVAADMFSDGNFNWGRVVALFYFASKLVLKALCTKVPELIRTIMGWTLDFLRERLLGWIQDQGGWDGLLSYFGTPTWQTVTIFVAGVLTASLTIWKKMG

CC1(C)CCC(c2ccc(Cl)cc2)=C(CN2CCN(c3ccc(C(=O)NS(=O)(=O)c4ccc(N[C@H](CCN5CCOCC5)CSc5ccccc5)c(S(=O)(=O)C(F)(F)F)c4)cc3)CC2)C1 [navitoclax]
platelet loss [1]: significant platelet loss

COC(=O)c1cccc(-c2cccc(NN=C3C(=O)N(c4ccc(C)c(C)c4)N=C3C)c2O)c1 [EO-Methyl Ester, eltrombopag methyl ester]
IC50 (BAX [2]): > 5 µM
inhibition of BAX in liposomal release assays (BAX [3]): significantly diminished inhibition
